Source: ChEMBL document CHEMBL1649205, “CraA, a major facilitator superfamily efflux pump associated with chloramphenicol resistance in Acinetobacter baumannii” (2009)
Values after ≈ are worked out from the molar mass of the structure shown.

Legend:
Format in all cases: functional
Acinetobacter baumannii [1] = test: Antimicrobial activity against Acinetobacter baumannii JVAB01 expressing disrupted open reading frame orf3 mutant deficient in efflux pump CraA by Etest
Acinetobacter baumannii [2] = test: Antimicrobial activity against efflux pump CraA deficient Acinetobacter baumannii JVAB01 receiving pJV103 harboring open reading frame orf3 encoded efflux pump CraA by Etest
Acinetobacter baumannii [3] = test: microbe, parasite or virus in culture; conditions: ATCC 19606
Description: Antimicrobial activity against Acinetobacter baumannii ATCC 19606 expressing open reading frame orf3 encoded efflux pump CraA by Etest

Acinetobacter baumannii [4] = test: Antimicrobial activity against Acinetobacter baumannii ATCC 19606 expressing open reading frame orf3 encoded efflux pump CraA in presence of efflux pump inhibitor phenyl-arginine-beta-naphthylamide by Etest
Acinetobacter baumannii [5] = test: Antimicrobial activity against efflux pump CraA deficient Acinetobacter baumannii JVAB01 receiving pJV103 harboring open reading frame orf3 encoded efflux pump CraA in presence of efflux pump inhibitor phenyl-arginine-beta-naphthylamide by Etest
Acinetobacter baumannii [6] = test: Antimicrobial activity against Acinetobacter baumannii JVAB01 expressing disrupted open reading frame orf3 mutant deficient in efflux pump CraA in presence of efflux pump inhibitor phenyl-arginine-beta-naphthylamide by Etest

Row | Structure (SMILES) | MIC (Acinetobacter baumannii [1]) [µg/mL] | MIC (Acinetobacter baumannii [2]) [µg/mL] | MIC (Acinetobacter baumannii [3]) [µg/mL] | MIC (Acinetobacter baumannii [4]) [µg/mL] | MIC (Acinetobacter baumannii [5]) [µg/mL] | MIC (Acinetobacter baumannii [6]) [µg/mL]
1 | CCC[C@@H]1C[C@@H](C(=O)N[C@@H]([C@H]2O[C@H](SC)[C@H](O)[C@@H](O)[C@H]2O)[C@H](C)Cl)N(C)C1 [CLINDAMYCIN] | > 256 | > 256 | > 256 | – | – | –
2 | O=C(O)c1cn(C2CC2)c2cc(N3CCNCC3)c(F)cc2c1=O [CIPROFLOXACIN] | 0.25 (≈ 0.754 µM) | 0.25 (≈ 0.754 µM) | 0.25 (≈ 0.754 µM) | – | – | –
3 | C[C@@H](O)[C@H]1C(=O)N2C(C(=O)O)=C(SCCNC=N)C[C@H]12 [IMIPENEM ANHYDROUS] | 0.75 (≈ 2.51 µM) | 0.75 (≈ 2.51 µM) | 0.75 (≈ 2.51 µM) | – | – | –
4 | CCn1cc(C(=O)O)c(=O)c2cc(F)c(N3CCNCC3)cc21 [NORFLOXACIN] | 6 (≈ 18.8 µM) | 6 (≈ 18.8 µM) | 6 (≈ 18.8 µM) | – | – | –
5 | CC[C@H]1OC(=O)[C@H](C)[C@@H](O[C@H]2C[C@@](C)(OC)[C@@H](O)[C@H](C)O2)[C@H](C)[C@@H](O[C@@H]2O[C@H](C)C[C@H](N(C)C)[C@H]2O)[C@](C)(O)C[C@@H](C)C(=O)[C@H](C)[C@@H](O)[C@]1(C)O [ERYTHROMYCIN] | 1.5 (≈ 2.04 µM) | 1.5 (≈ 2.04 µM) | 1.5 (≈ 2.04 µM) | – | – | –
6 | CN(C)[C@@H]1C(O)=C(C(N)=O)C(=O)[C@@]2(O)C(O)=C3C(=O)c4c(O)cccc4[C@@](C)(O)[C@H]3C[C@@H]12 [TETRACYCLINE] | 6 (≈ 13.5 µM) | 96 (≈ 216 µM) | 6 (≈ 13.5 µM) | – | – | –
7 | O=C(N[C@H](CO)[C@H](O)c1ccc([N+](=O)[O-])cc1)C(Cl)Cl [CHLORAMPHENICOL] | 2 (≈ 6.19 µM) | 192 (≈ 594 µM) | > 256 | 32 | 16 | 1.5
8 | CCn1cc(C(=O)O)c(=O)c2ccc(C)nc21 [NALIDIXIC ACID] | 12 (≈ 51.7 µM) | 12 (≈ 51.7 µM) | 12 (≈ 51.7 µM) | – | – | –
